The numbers were not newly measured in patent US20140171466A1, “PAIN MANAGEMENT IN SICKLE CELL ANEMIA” (priority 2012, published 2014), which cites them from elsewhere.

Each structure is given as a SMILES string. “Also recorded” adds a separate entry of the source. Read-outs that look alike come from different tables or passages of the source.

One data set has as its system mice. Conditions: systemically administered.
In the next data set the test system is nonhuman primates. The conditions noted are these: systemic administration.
For data set [1] the following is noted: compound on its own.
The conditions of data set [2]: in vivo.

As for `O=C1NCN(c2ccccc2)C12CCN(C1CCC3CCCc4cccc1c43)CC2` (stereo in doubt) [Compound 7, ((1 S,3aS)-8-(2,3,3a,4,5,6-hexahydro-1H-phenalen-1-yl)-1-phenyl-1,3,8-triaza-spiro[4.5]decan-4-one)], in the data set on mice, the “morphine conditioned place preference (CPP)” value is “block morphine conditioned place preference (CPP)”. Besides, in the data set on nonhuman primates, the spinal anti-nociceptive action entry is given as “spinal anti-nociceptive action of NOP agonists has been confirmed”.

With `CCCCCCC(C)(C)c1ccc([C@@H]2C[C@H](O)CC[C@H]2CCCO)c(O)c1` [CP 55,940], the “deep hyperalgesia incited by H/R” value in the data set with BERK mice is recorded as “ameliorated”. The hyperalgesia result in the data set on BERK sickle mice (low dose 0.3 mg/kg) is recorded as “attenuated hyperalgesia”.

Turning to `O=C1Cc2ccccc2N1C1CCN(C2CCCCCCC2)CC1` [Compound 3, 1-(1-cyclooctylpiperidin-4-yl)-indolin-2-one], the “reward in the CPP paradigm” value in data set [1] is reported as “not rewarding on its own”.

As to `CC1(N2CCC(n3c([C@@H]4CCCNC4)nc4ccccc43)CC2)CCCCCCC1` [Compound 10, 1-[1-(1-methylcyclooctyl)-4-piperidinyl]-2-[(3R)-3-piperidinyl]-1H-benzimidazole], in data set [2], the anxiolytic effects entry is “exhibits anxiolytic effects” and the “effect on memory or locomotion” value is “no effect on memory or locomotion”.

With `CN1CC[C@]23c4c5ccc(O)c4O[C@H]2[C@@H](O)C=C[C@H]3[C@H]1C5` [morphine], in the data set on BERK sickle mice (high dose 20 mg/kg, 20 mg/kg), the hyperalgesia result is on record as “effective; also recorded: markedly attenuated”.
